According to ChEMBL document CHEMBL2150866, “Irreversible 4-Aminopiperidine Transglutaminase 2 Inhibitors for Huntington's Disease” (ACS Med Chem Lett, 2012):

Experiments:
[1] = biological target: T1, Protein-glutamine gamma-glutamyltransferase (Homo sapiens, UniProt P21980); experiment: Inhibition of human TGM2
T1 sequence (P21980 whole entry): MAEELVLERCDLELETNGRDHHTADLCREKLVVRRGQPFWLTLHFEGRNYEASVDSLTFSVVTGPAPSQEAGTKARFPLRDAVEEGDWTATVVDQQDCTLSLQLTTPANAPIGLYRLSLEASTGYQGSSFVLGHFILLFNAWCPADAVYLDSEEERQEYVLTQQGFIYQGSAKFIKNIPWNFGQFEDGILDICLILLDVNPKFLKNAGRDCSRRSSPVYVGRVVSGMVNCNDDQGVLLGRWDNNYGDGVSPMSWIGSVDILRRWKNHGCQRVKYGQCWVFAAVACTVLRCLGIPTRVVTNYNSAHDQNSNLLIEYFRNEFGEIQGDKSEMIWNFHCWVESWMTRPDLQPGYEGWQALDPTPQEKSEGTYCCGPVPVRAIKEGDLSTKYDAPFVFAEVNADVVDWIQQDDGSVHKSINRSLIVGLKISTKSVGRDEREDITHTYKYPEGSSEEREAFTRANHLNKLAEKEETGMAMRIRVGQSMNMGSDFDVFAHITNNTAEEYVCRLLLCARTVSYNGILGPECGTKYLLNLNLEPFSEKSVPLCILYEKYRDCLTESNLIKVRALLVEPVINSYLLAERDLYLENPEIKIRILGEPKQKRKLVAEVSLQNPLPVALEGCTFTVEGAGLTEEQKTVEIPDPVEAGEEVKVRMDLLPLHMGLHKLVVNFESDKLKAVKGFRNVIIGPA

[2] = Half life in mouse plasma at 1 uM; assay type: ADME, cell-free
[3] = Half life in human plasma at 1 uM; assay type: ADME, cell-free
[4] = Chemical stability of the compound in phosphate buffer at pH 7.4 assessed as GSH adduct formation after 120 hrs; assay type: physicochemical; settings: pH 7.4, 120 h

Row | SMILES | IC50 [1] [nM] | half-life at 1 µM [2] [h] | half-life at 1 µM [3] [h] | Stability [4]
1 | C=CC(=O)NC1CCN(S(=O)(=O)c2ccc(C(=O)NCCC3CCCCC3)cc2)CC1 | 140 | > 6 | > 6 | –
2 | C=CC(=O)NC1CCN(S(=O)(=O)c2ccc(C(=O)NC3CCCc4ccccc43)cc2)CC1 (stereo not drawn) | 320 | > 6 | > 6 | –
3 | C=CC(=O)NC1CCN(S(=O)(=O)c2ccc(C(=O)N[C@@H]3C[C@H]3c3ccccc3)cc2)CC1 (racemic) | 410 | > 6 | > 6 | –
4 | C=CC(=O)NC1CCN(S(=O)(=O)c2ccc(C(=O)NCCC34CC5CC(CC(C5)C3)C4)cc2)CC1 | 660 | > 6 | > 6 | –
5 | C=CC(=O)NC1CCN(S(=O)(=O)c2ccc(C(=O)NC3Cc4ccccc4C3)cc2)CC1 | 200 | > 6 | > 6 | –
6 | Nc1ccc(S(=O)(=O)N2CCN(C(=O)C3CC3)CC2)cc1 | > 80000 | > 24 | > 6 | –
7 | C=CC(=O)NC1CCN(Cc2ccc(NC(=O)OCc3ccccc3)cc2)CC1 | 1600 | > 6 | > 6 | –
8 | C=CC(=O)NC1CCN(S(=O)(=O)c2ccc(C(=O)NCCC3CCOCC3)cc2)CC1 | 360 | > 6 | > 6 | –
9 | C=CC(=O)NC1CN(S(=O)(=O)c2ccc(NC(=O)OCc3ccccc3)cc2)C1 | 1600 | > 6 | > 6 | –
10 | C=CC(=O)N[C@H]1CCN(S(=O)(=O)c2ccc(NC(=O)OCc3ccccc3)cc2)C1 | 55000 | > 6 | > 6 | –
11 | C=CC(=O)NCCN(C)S(=O)(=O)c1ccc(NC(=O)OCc2ccccc2)cc1 | 3300 | > 6 | > 6 | –
12 | C=CC(=O)N[C@@H]1CCCN(S(=O)(=O)c2ccc(NC(=O)OCc3ccccc3)cc2)C1 | > 80000 | > 6 | > 6 | –
13 | C=CC(=O)NC1CCN(S(=O)(=O)c2ccc(C(=O)N(C)Cc3ccccc3)cc2)CC1 | 630 | > 6 | > 6 | –
14 | C=CC(=O)N1CCN(S(=O)(=O)c2ccc(NC(=O)OCc3ccccc3)cc2)CC1 | – | > 6 | > 6 | –
15 | C=CC(=O)NC1CCN(S(=O)(=O)c2ccc(C(=O)NCCN3CCOCC3)cc2)CC1 | 380 | > 6 | > 6 | –
16 | C=CC(=O)N[C@H]1CCCN(S(=O)(=O)c2ccc(NC(=O)OCc3ccccc3)cc2)C1 | > 80000 | > 6 | > 6 | –
17 | C=CC(=O)NC1CCN(S(=O)(=O)c2ccc(C(=O)N3CCc4ccccc4C3)cc2)CC1 | 620 | > 6 | > 6 | –
18 | C=CC(=O)NC1CCN(C(=O)c2ccc(NC(=O)OCc3ccccc3)cc2)CC1 | 8900 | > 6 | > 6 | –
19 | C=CC(=O)NC1CCN(S(=O)(=O)c2ccc(C(=O)N(C)CCc3ccccc3)cc2)CC1 | 460 | > 6 | > 6 | –
20 | C=CC(=O)NCC1CCN(S(=O)(=O)c2ccc(NC(=O)OCc3ccccc3)cc2)CC1 | 5100 | > 6 | > 6 | –
21 | C=CC(=O)N[C@@H]1CCN(S(=O)(=O)c2ccc(NC(=O)OCc3ccccc3)cc2)C1 | 30000 | > 6 | > 6 | –

Next, values leading:

Row | IC50 [1] [nM] | half-life at 1 µM [2] [h] | half-life at 1 µM [3] [h] | Stability [4] | SMILES
22 | 22000 | > 6 | > 6 | – | C=CC(=O)NC1CCN(S(=O)(=O)c2ccc(C(=O)NCCc3ccc(C(C)(C)C)cc3)cc2)CC1
23 | 180 | > 6 | > 6 | – | C=CC(=O)NC1CCN(S(=O)(=O)c2ccc(C(=O)NCCc3ccc(C)c(C)c3)cc2)CC1
24 | 230 | > 6 | > 6 | – | C=CC(=O)NC1CCN(S(=O)(=O)c2ccc(C(=O)NCCc3ccccc3OC)cc2)CC1
25 | 200 | > 6 | > 6 | – | C=CC(=O)NC1CCN(S(=O)(=O)c2ccc(C(=O)NCc3ccccc3)cc2)CC1
26 | 260 | > 6 | > 6 | – | C=CC(=O)NC1CCN(S(=O)(=O)c2ccc(C(=O)NCCc3cccc4c3OCC4)cc2)CC1
27 | 280 | > 6 | > 6 | – | C=CC(=O)NC1CCN(S(=O)(=O)c2ccc(C(=O)NCCc3cccc4c3OCO4)cc2)CC1
28 | 280 | > 6 | > 6 | – | C=CC(=O)NC1CCN(S(=O)(=O)c2ccc(C(=O)NCCc3ccc(Cl)cc3)cc2)CC1
29 | 550 | > 6 | > 6 | – | C=CC(=O)NC1CCN(S(=O)(=O)c2ccc(C(=O)NCCc3ccc(C(F)(F)F)cc3)cc2)CC1
30 | 460 | > 6 | > 6 | – | C=CC(=O)NC1CCN(S(=O)(=O)c2ccc(C(=O)NCCc3ccc(OC)c(OC)c3)cc2)CC1
31 | 280 | > 6 | > 6 | – | C=CC(=O)NC1CCN(S(=O)(=O)c2ccc(C(=O)NCCc3ccc4ccccc4c3)cc2)CC1
32 | 770 | > 6 | > 6 | – | C=CC(=O)NC1CCN(S(=O)(=O)c2ccc(C(=O)NCCCc3ccccc3)cc2)CC1
33 | 57000 | > 6 | > 6 | – | C=CC(=O)NC1CCN(S(=O)(=O)c2ccc(C(=O)NCCc3ccc(-c4ccccc4)cc3)cc2)CC1
34 | 170 | > 6 | > 6 | – | C=CC(=O)NC1CCN(S(=O)(=O)c2ccc(C(=O)NCc3cccc4ccccc34)cc2)CC1
35 | 170 | > 6 | > 6 | Stable | C=CC(=O)NC1CCN(S(=O)(=O)c2ccc(C(=O)NCCc3cccc(Cl)c3)cc2)CC1
36 | 310 | > 6 | > 6 | – | C=CC(=O)NC1CCN(S(=O)(=O)c2ccc(C(=O)NCCc3ccc4cccnc4c3)cc2)CC1
